Laboratory results: ChEMBL document CHEMBL4673334, “In Vivo Biological Evaluation of a Synthetic Royleanone Derivative as a Promising Fast-Acting Trypanocidal Agent by Inducing Mitochondrial-Dependent Necrosis” (J Nat Prod, 2020)
The source made the active and inactive calls. No cut-off for these calls is given here.

Tests used:
[1] = Inhibition of Trypanosoma cruzi MHOM/Pe/2011/Arequipa(DTU V) epimastigote form Fe-SOD by UV-VIS spectrophotometric method
Trypanosoma cruzi [2] = test: Inhibition of mitochondrial membrane potential in Trypanosoma cruzi MHOM/Pe/2011/Arequipa(DTU V) epimastigote form at IC25 concentration after 72 hrs by Rho (FITC-A) staining based flow cytometric analysis; assay type: functional
Trypanosoma cruzi [3] = test: Antitrypanosomal activity against Trypanosoma cruzi MHOM/Pe/2011/Arequipa(DTU V) epimastigote form assessed as disruption of L-alanine level at IC25 concentration incubated for 72 hrs by NMR spectrometric analysis; assay type: functional, organism-based
Trypanosoma cruzi [4] = test: Antitrypanosomal activity against Trypanosoma cruzi MHOM/Pe/2011/Arequipa(DTU V) epimastigote form assessed as disruption of acetate level at IC25 concentration incubated for 72 hrs by NMR spectrometric analysis; assay type: functional, organism-based
Trypanosoma cruzi [5] = test: Antitrypanosomal activity against Trypanosoma cruzi MHOM/Pe/2011/Arequipa(DTU V) epimastigote form assessed as disruption of pyruvate level at IC25 concentration incubated for 72 hrs by NMR spectrometric analysis; assay type: functional, organism-based
Trypanosoma cruzi [6] = test: Antitrypanosomal activity against Trypanosoma cruzi MHOM/Pe/2011/Arequipa(DTU V) epimastigote form assessed as disruption of ethanol end product level at IC25 concentration incubated for 72 hrs by NMR spectrometric analysis; assay type: functional, organism-based
Trypanosoma cruzi [7] = test: Antitrypanosomal activity against Trypanosoma cruzi MHOM/Pe/2011/Arequipa(DTU V) epimastigote form assessed as disruption of glycerol level at IC25 concentration incubated for 72 hrs by NMR spectrometric analysis; assay type: functional, organism-based
[8] = Toxicity in BALB/c mouse infected with Trypanosomal Trypanosoma cruzi MHOM/Pe/2011/Arequipa(DTU V) assessed as reduction in weight at 20 mg/kg, po administered for 5 days starting at 100 days post infection and measured up to 145 days post infection; assay type: organism-based; settings: in vivo, 120 h, time 5 day
[9] = Toxicity in BALB/c mouse infected with Trypanosomal Trypanosoma cruzi MHOM/Pe/2011/Arequipa(DTU V) assessed as reduction in survival at 20 mg/kg, po administered for 5 days starting at 100 days post infection and measured up to 145 days post infection; assay type: organism-based; settings: in vivo, 120 h, time 5 day
[10] = Toxicity in BALB/c mouse infected with Trypanosomal Trypanosoma cruzi MHOM/Pe/2011/Arequipa(DTU V) assessed as effect on ALT/GPT level at 20 mg/kg, po administered for 5 days starting at 100 days post infection and measured after 2 days post treatment; assay type: organism-based; settings: in vivo, 120 h, time 5 day
[11] = Toxicity in BALB/c mouse infected with Trypanosomal Trypanosoma cruzi MHOM/Pe/2011/Arequipa(DTU V) assessed as effect on LDH level at 20 mg/kg, po administered for 5 days starting at 100 days post infection and measured after 2 days post treatment; assay type: organism-based; settings: in vivo, 120 h, time 5 day
[12] = Toxicity in BALB/c mouse infected with Trypanosomal Trypanosoma cruzi MHOM/Pe/2011/Arequipa(DTU V) assessed as effect on ALP level at 20 mg/kg, po administered for 5 days starting at 9 days post infection and measured after 2 days post treatment; assay type: organism-based; settings: in vivo, 120 h, time 5 day
[13] = Toxicity in BALB/c mouse infected with Trypanosomal Trypanosoma cruzi MHOM/Pe/2011/Arequipa(DTU V) assessed as effect on AST/GOT level at 20 mg/kg, po administered for 5 days starting at 9 days post infection and measured after 2 days post treatment; assay type: organism-based; settings: in vivo, 120 h, time 5 day
[14] = Toxicity in BALB/c mouse infected with Trypanosomal Trypanosoma cruzi MHOM/Pe/2011/Arequipa(DTU V) assessed as effect on CK-MB level at 20 mg/kg, po administered for 5 days starting at 9 days post infection and measured after 2 days post treatment; assay type: organism-based; settings: in vivo, 120 h, time 5 day
[15] = Toxicity in BALB/c mouse infected with Trypanosomal Trypanosoma cruzi MHOM/Pe/2011/Arequipa(DTU V) assessed as effect on uric acid level at 20 mg/kg, po administered for 5 days starting at 9 days post infection and measured after 2 days post treatment; assay type: organism-based; settings: in vivo, 120 h, time 5 day
[16] = Toxicity in BALB/c mouse infected with Trypanosomal Trypanosoma cruzi MHOM/Pe/2011/Arequipa(DTU V) assessed as effect on urea level at 20 mg/kg, po administered for 5 days starting at 9 days post infection and measured after 2 days post treatment; assay type: organism-based; settings: in vivo, 120 h, time 5 day
Trypanosoma cruzi [17] = test: Antitrypanosomal activity against Trypanosoma cruzi MHOM/Pe/2011/Arequipa(DTU V) amastigote form infected in BALB/c mouse assessed as reactivation parasitaemia at 20 mg/kg, po administered for 5 days starting at 100 days post infection and measured up to 145 days post infection relative to control; assay type: functional
Trypanosoma cruzi [18] = test: Antitrypanosomal activity against Trypanosoma cruzi MHOM/Pe/2011/Arequipa(DTU V) amastigote form infected in BALB/c mouse assessed as reactivation parasitaemia at 20 mg/kg, po administered for 5 days starting at 9 days post infection and measured up to 145 days post infection relative to control; assay type: functional
Trypanosoma cruzi [19] = test: Antitrypanosomal activity against Trypanosoma cruzi MHOM/Pe/2011/Arequipa(DTU V) amastigote form infected in Vero cells assessed as parasite growth inhibition at 50 uM incubated for 72 hrs by Giemsa-staining based assay relative to control; assay type: functional
[20] = Selectivity index, ratio of IC50 for cytotoxicity against African green monkey Vero cells to IC50 for antitrypanosomal activity against Trypanosoma cruzi TINF/CH/1956/Tulahuen (DTU VI) blood stream trypomastigote form; assay type: toxicity, cell-based; settings: read-out: Ratio IC50
[21] = Selectivity index, ratio of IC50 for cytotoxicity against African green monkey Vero cells to IC50 for antitrypanosomal activity against Trypanosoma cruzi TINF/CH/1956/Tulahuen (DTU VI) epimastigote form; assay type: toxicity, cell-based; settings: read-out: Ratio IC50
[22] = Selectivity index, ratio of IC50 for cytotoxicity against African green monkey Vero cells to IC50 for antitrypanosomal activity against Trypanosoma cruzi IRHOD/CO/2008/SN3 (DTU I) blood stream trypomastigote form; assay type: toxicity, cell-based; settings: read-out: Ratio IC50
[23] = Selectivity index, ratio of IC50 for cytotoxicity against African green monkey Vero cells to IC50 for antitrypanosomal activity against Trypanosoma cruzi IRHOD/CO/2008/SN3 (DTU I) amastigote form infected in Vero cells; assay type: toxicity, cell-based; settings: read-out: Ratio IC50
[24] = Selectivity index, ratio of IC50 for cytotoxicity against African green monkey Vero cells to IC50 for antitrypanosomal activity against Trypanosoma cruzi IRHOD/CO/2008/SN3 (DTU I) epimastigote form; assay type: toxicity, cell-based; settings: read-out: Ratio IC50
Trypanosoma cruzi [25] = test: Antitrypanosomal activity against Trypanosoma cruzi TINF/CH/1956/Tulahuen (DTU VI) blood stream trypomastigote form assessed as parasite growth inhibition incubated for 24 hrs by resazurin dye based assay; assay type: functional, organism-based
Trypanosoma cruzi [26] = test: Antitrypanosomal activity against Trypanosoma cruzi IRHOD/CO/2008/SN3 (DTU I) blood stream trypomastigote form assessed as parasite growth inhibition incubated for 24 hrs by resazurin dye based assay; assay type: functional, organism-based
Trypanosoma cruzi [27] = test: Antitrypanosomal activity against Trypanosoma cruzi IRHOD/CO/2008/SN3 (DTU I) epimastigote form assessed as parasite growth inhibition incubated for 48 hrs by resazurin dye based assay; assay type: functional, organism-based
Trypanosoma cruzi [28] = test: Antitrypanosomal activity against Trypanosoma cruzi MHOM/Pe/2011/Arequipa(DTU V) blood stream trypomastigote form assessed as parasite growth inhibition incubated for 24 hrs by resazurin dye based assay; assay type: functional, organism-based
Trypanosoma cruzi [29] = test: Antitrypanosomal activity against Trypanosoma cruzi MHOM/Pe/2011/Arequipa(DTU V) amastigote form infected in Vero cells assessed as parasite growth inhibition incubated for 72 hrs by Giemsa-staining based assay; assay type: functional, organism-based

Compound	IC50 [1] [µM]	inhibition (Trypanosoma cruzi [2]) [%]	Activity (Trypanosoma cruzi [3])	Activity (Trypanosoma cruzi [4])	Activity (Trypanosoma cruzi [5])	Activity (Trypanosoma cruzi [6])	Activity (Trypanosoma cruzi [7])	Activity [8]	Activity [9]	Activity [10]	Activity [11]	Activity [12]	Activity [13]	Activity [14]	Activity [15]	Activity [16]	inhibition at 50 µM (Trypanosoma cruzi [19]) [%]	selectivity ratio [20]	selectivity ratio [21]	selectivity ratio [22]	other results
CC(C)c1cc(C=O)c([C@@]2(C)CCCC(C)(C)C2=O)cc1O	> 100	41.8	inactive	inactive	inactive	Active	Active	Non-Toxic	Non-Toxic	Non-Toxic	Non-Toxic	Non-Toxic	Non-Toxic	Non-Toxic	Non-Toxic	Non-Toxic	100	> 40	> 15	> 40	Activity (Trypanosoma cruzi [17]; time 5.0 day): Active; Activity (Trypanosoma cruzi [18]; time 5.0 day): Active; selectivity ratio [23]: > 40; selectivity ratio [24]: > 15; IC50 (Trypanosoma cruzi [25]): 9.3 µM; IC50 (Trypanosoma cruzi [26]): 8.7 µM; IC50 (Trypanosoma cruzi [27]): 12.5 µM; IC50 (Trypanosoma cruzi [28]): 9.9 µM; IC50 (Trypanosoma cruzi [29]): 9.2 µM
COC(=O)[C@]1(C)CCC[C@]2(C)C3=C(C=C[C@@H]12)C(=O)C(C(C)C)=CC3=O	6.5	50	inactive	inactive	inactive	Active	Active	Non-Toxic	Non-Toxic	Non-Toxic	Non-Toxic	Non-Toxic	Non-Toxic	Non-Toxic	Non-Toxic	Non-Toxic	100	> 40	> 15	> 40	Activity (Trypanosoma cruzi [17]; time 5 day): 52%; Activity (Trypanosoma cruzi [18]; time 5 day): 52%; selectivity ratio [23]: > 40; selectivity ratio [24]: > 15; IC50 (Trypanosoma cruzi [25]): 1.6 µM; IC50 (Trypanosoma cruzi [26]): 1.8 µM; IC50 (Trypanosoma cruzi [27]): 1.6 µM; IC50 (Trypanosoma cruzi [28]): 0.7 µM; IC50 (Trypanosoma cruzi [29]): 4.8 µM
